Data set [1] concerns PEDV CV777. The data set is described as follows: Antiviral activity assay (MTT, virus inhibition rate), PEDV CV777. As to conditions: Porcine epidemic diarrhea virus, Vero C1008, read-out: IC50 PEDV CV777.
Data set [2] deals with PEDV DY. The data set is described as follows: Antiviral activity assay (MTT, virus inhibition rate), PEDV DY. As to conditions: Porcine epidemic diarrhea virus, Vero C1008, read-out: IC50 PEDV DY.
A further data set in a line: Cytotoxicity assay (MTT). The class given is cell-based. As to conditions: African green monkey. How it is done: (§1) Then, different concentrations of compounds in DMEM were added to cells and incubated for another 48 h. […] MTT solution (10 μL per well) was added and incubated for another 4 h at 37°C, discarding the native compounds and using dimethyl sulfoxide (DMSO) to dissolve products for 10 min at 37°C. Microplate reader (BioTek, Winooski, VT, United States) was used to measure the 96-well plate at 570 nm, and the cell viability (%) was calculated by OD values ([23]). […] The percentage of relative cell viability was calculated according to the formula: […]%=[…]

Data set [3] concerns PEDV. The data set is described as follows: Antiviral activity assay, PEDV strain not stated. As to conditions: Porcine epidemic diarrhea virus, read-out: IC50 values against PEDV.
For data set [4], the system named is PEDV DY. The data set is described as follows: Virus titration (TCID50, Reed-Muench), PEDV DY. The data set is classed as cell-based, porcine epidemic diarrhea virus. As to conditions: for virus titer vs virus control group: PEDV DY, 24, 36 and 48 hpi, p < 0.01.
Data set [5] concerns PEDV CV777. The data set is described as follows: Virus titration (TCID50, Reed-Muench), PEDV CV777. The class given is cell-based, porcine epidemic diarrhea virus. As to conditions: for virus titer vs virus control group: PEDV CV777, 24, 36 and 48 hpi, p < 0.01.
For the next data set, the system named is Vero E6 cells. As to the kind of experiment: Cytotoxicity assay (MTT). The class given is cell-based. The procedure:
as §1

The test system of data set [6] is human Huh 7 it-1 cell line. Also noted: method as in doi:10.1088/1755-1315/462/1/012033. As to conditions: cited from earlier work.
Data set [7] deals with DENV-2. Also noted: method as in doi:10.1088/1755-1315/462/1/012033. As to conditions: cited from earlier work.
Data set [8] has as its system PEDV. The data set is described as follows: Time-of-addition assay, prophylactic stage (qPCR, western blot). The data set is classed as cell-based, porcine epidemic diarrhea virus. As to conditions: for viral mRNA quantitation: qPCR; for expression level of PEDV N protein: western blot, concentration dependent. In general terms: Real-time PCR tracks product formation cycle by cycle.

Data set [9] deals with PEDV. The data set is described as follows: Time-of-addition assay, post-viral entry stage (qPCR, western blot). The data set is classed as cell-based, porcine epidemic diarrhea virus. As to conditions: for viral nucleic acid copy numbers vs control group: qPCR, p < 0.05; for expression level of PEDV N protein: western blot, concentration dependent.
The next data set concerns enterovirus 71. The arrangement: method as in PMID 24598537. As to conditions: replication of enterovirus 71, by inhibiting 3CLpro protein activity; cited from earlier work.
The subject of data set [10] is PEDV. As to the kind of experiment: Indirect immunofluorescence assay of viral load. As to conditions: Vero E6 cells, 48 h after infection, concentration dependent.
Data set [11] deals with PEDV. The data set is described as follows: Viral quantification by qPCR at different time points. The class given is cell-based, porcine epidemic diarrhea virus. As to conditions: 24 hpi and 48 hpi, p < 0.001.
Data set [12] relates to PEDV. The data set is described as follows: Time-of-addition assay, viral entry stage (qPCR). The data set is classed as cell-based, porcine epidemic diarrhea virus.
In another data set the test system is mice. As to conditions: animal tests; cited from earlier work.
Data set [13] has as its system DENV-2. The arrangement: method as in doi:10.1186/1743-422X-8-560. As to conditions: 50 μg/mL after virus incubation; cited from earlier work.
Where [14] appears, read: Vero E6 cells, MTT, 48 h incubation, read-out: CC50.

As usually defined, the IC50 is the point on the concentration scale where inhibition reaches its midpoint. A word on the CC50: it is the concentration at which the toxic effect on the cells reaches its halfway point.

In brackets after ≈: the same amount, converted by molar mass. Like-named read-outs stand apart in the source and are kept apart here.

Consider `CC1(C)[C@@H](O)CC[C@]2(C)[C@H]3C(=O)C=C4[C@@H]5C[C@@](C)(C(=O)O)CC[C@]5(C)CC[C@@]4(C)[C@]3(C)CC[C@@H]12` [Glycyrrhetinic acid, glycyrrhetinic acid], for which the IC50 with PEDV CV777 [1], in the data set on PEDV DY [2] and in the data set on PEDV [3] was over 100 mg/L in each case. For the same molecule, the CC50 at 48 h in “Cytotoxicity assay (MTT)” came to 17.4 ± 4.61 mg/L (≈ 37 µM).
On to `NC(=O)c1ncn([C@@H]2O[C@H](CO)[C@@H](O)[C@H]2O)n1` [Ribavirin, ribavirin, reference compound], for which the “virus titer vs virus control” value in the data set with PEDV DY [4] (PEDV DY, 36 h, p < 0.05) was “significantly lower”; in the data set with PEDV CV777 [5] (PEDV CV777, 36 h, p < 0.05), “significantly lower”. For the same molecule, the half-inhibitory concentration (IC50) in the data set with PEDV CV777 [1] was determined as 88 ± 3.78 mg/L (≈ 360 µM); in the data set on PEDV DY [2], 71.4 ± 3.78 mg/L (≈ 292 µM). This molecule also yielded a cytotoxic concentration (CC50) at 48 h in the data set “Cytotoxicity assay (MTT)” of 249 ± 4.2 mg/L (≈ 1020 µM).
As for `CC1(C)CC[C@]2(C(=O)O)CC[C@]3(C)C(=CC[C@@H]4[C@@]5(C)CC[C@H](O)C(C)(C)[C@@H]5CC[C@]43C)[C@@H]2C1` [Oleanolic acid, oleanolic acid], the concentration for half-maximal inhibition (IC50) in the data set on PEDV CV777 [1], with PEDV DY [2] and in the data set with PEDV [3] was over 100 mg/L in each case. The CC50 at 48 h in “Cytotoxicity assay (MTT)” (setting [14]) was determined as 4.05 ± 3.91 mg/L (≈ 8.88 µM).
For `COC(=O)C1=CO[C@@H](O[C@@H]2O[C@H](CO)[C@@H](O)[C@H](O)[C@H]2O)[C@@H]2C(CO)=CC[C@H]12` [Geniposide, geniposide], the IC50 in the data set on PEDV CV777 [1], in the data set on PEDV DY [2] and with PEDV [3] was over 100 mg/L in each case. In addition, the CC50 at 48 h in “Cytotoxicity assay (MTT)” (setting [14]) was determined as 10.4 ± 2.03 mg/L (≈ 26.7 µM).
soy isoflavone: the CC50 in the data set with Vero E6 cells turned out to be 53.03 ± 2.30 mg/L.
As to `O=c1c(O)c(-c2ccc(O)c(O)c2)oc2cc(O)cc(O)c12` [quercetin], the 50% cytotoxic concentration (CC50) in data set [6] was 217.113 mg/L (≈ 718 µM). For the same molecule, the “IC50 against DENV-2” value with DENV-2 [7] was 18.41 mg/L (≈ 60.9 µM). Also, the IC50 in the data set with PEDV [3] is over 100 mg/L.
On to `O=c1cc(-c2ccccc2)oc2cc(O)cc(O)c12` [Chrysin, chrysin], for which the “virus titer vs virus control group” value in the data set on PEDV DY [4] and in the data set on PEDV CV777 [5] was “significantly lower” in each case. Also, the concentration for half-maximal inhibition (IC50) in the data set with PEDV CV777 [1] is 2.19 ± 2.25 mg/L (≈ 8.62 µM); with PEDV DY [2], 2.48 ± 0.59 mg/L (≈ 9.77 µM); in the data set on enterovirus 71, 24.1 µM. The molecule also registered a 50% cytotoxic concentration (CC50) at 48 h in the data set “Cytotoxicity assay (MTT)” of 83.6 ± 2.12 mg/L (≈ 329 µM). Further, the “viral mRNA quantitation” value in the data set with PEDV [8] (12.5 μg/mL) is listed as 3.87 × 10^6 copies/μL; in the data set with PEDV [8] (25 μg/mL) it was 1.78 × 10^6 copies/μL; in the data set with PEDV [8] (50 μg/mL), 1.19 × 10^6 copies/μL. Also, the “expression level of PEDV N protein” value in the data set with PEDV [8] and in the data set with PEDV [9] was “significantly inhibit” in each case. The “viral nucleic acid copy numbers vs control group” value in the data set on PEDV [9] was “significantly lower than those in the control group”. Moreover, the “green fluorescence of viral proteins (IFA)” value with PEDV [10] is “diminished to varying extents”. In addition, the “virus copy numbers vs control group” value in the data set on PEDV [11] (50 μg/mL) was “significantly lower than in the control group”. For the same molecule, the “inhibitory effect, nucleic acid copy numbers vs control group” value with PEDV [12] was “did not show significant inhibitory effects”. The toxic effects result with mice is listed as “no toxic effects on mice”.
As for `O=C1C[C@@H](c2ccc(O)cc2)Oc2cc(O)cc(O)c21` [Naringenin, naringenin], the “virus titer vs virus control group” value in the data set on PEDV DY [4] and with PEDV CV777 [5] was “significantly lower” each time. The IC50 turned out to be 4.39 ± 0.96 mg/L (≈ 16.1 µM) in the data set on PEDV CV777 [1] and 4.5 ± 2.25 mg/L (≈ 16.5 µM) in the data set on PEDV DY [2]. For the same molecule, the CC50 at 48 h in “Cytotoxicity assay (MTT)” (setting [14]) was 61.9 ± 0.97 mg/L (≈ 227 µM). Besides, the “viral mRNA quantitation” value is 4.79 × 10^6 copies/μL with PEDV [8] (3.13 μg/mL), 3.21 × 10^6 copies/μL in the data set on PEDV [8] (6.25 μg/mL) and 2.17 × 10^6 copies/μL in the data set with PEDV [8] (12.5 μg/mL). Besides, the “expression level of PEDV N protein” value in the data set with PEDV [8] and in the data set with PEDV [9] was “significantly inhibit” each time. In addition, the “viral nucleic acid copy numbers vs control group” value in the data set with PEDV [9] is listed as “significantly lower than those in the control group”. Also, in the data set with DENV-2 [13], the “reduction of DENV-2 RNA levels” value is given as 50%. In the data set with PEDV [10], the “green fluorescence of viral proteins (IFA)” value was “diminished to varying extents”. The “virus copy numbers vs control group” value with PEDV [11] (12.5 μg/mL) was “significantly lower than in the control group”. Further, the “inhibitory effect, nucleic acid copy numbers vs control group” value in the data set on PEDV [12] is “did not show significant inhibitory effects”.
